Test results as given in patent US20240052300A1, “DIFFUSION GRADIENT ASSAY FOR ANTI-CD3-CONTAINING MOLECULES” (priority 2020, published 2024).
Side-chain parts run from the residue outwards. [ ]: non-standard residue; d: D form. pGlu = O=C1CC[C@@H](C(=O)O)N1

Tests used:
[1] = tested on: recombinant canonical BiTE® protein; test: Size exclusion chromatography with fluorescence detection of CD3-AF488 bound to secreted BiTE; type: binding; conditions: secretion medium mixed with reagent, capture chromatography, FIG. 1B
Procedure: 100 μl of 0.2 μm filtrated mammalian cell culture samples containing expressed BiTE® constructs featuring human CD3e binding binders were mixed with 2.5 μl peptide-fluorochrome conjugate and transferred into autosampler vials. The vials were placed onto an autosampler connected to an Ultra High Performance Liquid Chromatography ACQUITY UPLC device (Waters, Eschborn, Germany) featuring a fluorescence detector. An analytical size exclusion chromatography BEH200 SEC 1.7 μm column (Waters, Eschborn, Germany) was connected to the UHPLC and equilibrated with a water-based buffer system containing 10 mM Citric Acid, 75 mM Lysine HCl, adjusted to pH 7.0. 10 μl of each prepared sample were applied to the column and eluted using isocratic elution. Detection was performed by using fluorescence detection at 490 nm excitation and 520 nm emission wavelength. […] Both, unpurified secretion medium and purified material were subsequently analyzed by size exclusion chromatography equipped with fluorescence detector (FIG. 1B, C). This setup allowed monitoring of the elution profile of the CD3-AF488 peptide and its bound protein complexes in the context of the whole protein content present in analyzed samples. The UV absorbance (A280 nm) elution profile of purified material allowed for identification of BiTE® monomers, dimers and HMW species (FIG. 1B).

[2] = tested on: BiTE® recombinant protein
Procedure: The ability of the CD3-AF594 peptide conjugate to be used for diffusion gradient assays to detect secretion of recombinant CD3 binders on Berkeley Light's nanofluidic chip (FIG. 2A) was assessed next. Cells expressing the BiTE® modality were loaded onto a BLI platform using a standard cell line development workflow. Single cells were deposited in Nanopens™, and subsequently cultured under perfusion for the duration of 6 days. The CD3 reagent was used in a diffusion gradient assay using optimized settings as described herein.

[3] = tested on: BiTE®-Fc fusion; test: On-chip CD3 diffusion gradient assay, BiTE-Fc secreting cells; conditions: day 5 on chip; FIG. 3A,B
Procedure: (§1) The CD3 diffusion assay peptide reagent was resuspended in DMSO at 1 mg/ml and stored protected from light at −20° C. for long term storage. For short term storage the assay reagent was further diluted to 4 μg/ml in PBS and stored at 4° C. Prior executing the diffusion gradient assay to detect BiTE® secretion on nanofluidic chip the CD3 diffusion assay reagent was diluted in cell culture medium to 0.2 μg/ml concentration, filtered through 22 μm filter, transferred to 96 well plate and incorporated on the chip. The assay reagent was perfused on the chip at 0.014 μl/sec flow rate for the duration of 45 minutes. In FIG. 4, once the equilibration step was complete the assay reagent was flushed out with 250 μl of cell culture medium at a 20/sec flow rate followed by an additional flush with the cell culture medium at the 0.1667 μl/sec flow rate for the duration of 20 mins. The chip was then imaged through TRED filter cube using 900 ms exposure time and 100% illumination settings.
(§2) In FIG. 2, the CD3 diffusion assay reagent was used at 0.125 μg/ml final concentration. […]
(§3) For CD3 diffusion assays shown in FIGS. 3 and 4, the reference assay was run on an empty chip in order to generate reference images used for normalizing the CD3 diffusion assay score against chip position effects and background fluorescence signal. […]
(§4) Next, the specificity of the BiTE® diffusion gradient assay was assessed. […]

[4] = tested on: IgG-fusion protein; conditions: day 5 on chip; FIG. 3A-C
Procedure: as §1, §2, §3, §4

| Substance | complex formation with BiTE® recombinant protein (fluorescent SEC elution profile) [1] | fluorescent signal in pens with BiTE® expressing cells vs empty pens ([2]; 6 days perfusion culture, reagent 0.125 μg/ml, FIG. 2B) | detection of secretion of BiTE® expressing cell lines ([2]; day 5 on chip, FIG. 3A-C) | detection of secretion of the BiTE®-Fc protein product [3] | detection of secretion of the IgG-fusion protein [4] |
| --- | --- | --- | --- | --- | --- |
| CD3-AF488 peptide ([pGlu]DGNEEMGGC([C5 maleimide-Alexa Fluor 488])-NH2) | formed a complex with the BiTE® recombinant protein | – | – | – | – |
| Pyroglutamate-DGNEEMGGC-AF594 [CD3-AF594 conjugate] | – | High fluorescent signal | efficiently detected secretion | detected | failed to detect secretion |
